Test results taken from patent publication US20250288584A1, “COMBINATIONS COMPRISING POSITIVE ALLOSTERIC MODULATORS OR ORTHOSTERIC AGONISTS OF METABOTROPIC GLUTAMATERGIC RECEPTOR SUBTYPE 2 AND THEIR USE” (JANSSEN PHARMACEUTICA NV, priority 2014, published 2025).
Several values for one entry are separate records, joined by “and”; a condition that tells them apart may be missing. Identical values can stand only once. Entries after “also recorded” stand apart in the source; their conditions may differ. Like-named read-outs stand apart in the source and are kept apart here.

Legend:
Type in all cases: in vivo, mice
[1] = tested on: 6 Hz (32 mA) psychomotor seizures; assay: 6 Hz psychomotor seizure test, 32 mA (incl. TPE determination); settings: for ED50: Mus musculus, read-out: ED50 (95% CI) 32 mA
Procedure, shortened: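 Mice dosed s.c. into a loose skin fold (one compound p.o.) at 0.01 mL/g body weight. Focal seizures induced by corneal stimulation (6 Hz, 0.2 msec rectangular pulse, 3 sec) at 32 mA; absence of stun, forelimb clonus, vibrissae twitching and Straub-tail scored as protection. TPE determined in this assay; ED50 from evenly spaced doses.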

[2] = tested on: 6 Hz (44 mA) psychomotor seizures; assay: 6 Hz psychomotor seizure test, 44 mA (alone, combination with LEV, isobolographic study)
Procedure, shortened: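 Mice dosed s.c. or p.o. at 0.01 mL/g, alone or with LEV at fixed dose ratios proportional to ED50 values. Focal seizures induced by corneal stimulation (6 Hz, 0.2 msec pulse, 3 sec, 44 mA); animals without stun, forelimb clonus, vibrissae twitch or Straub-tail were counted as protected. ED50 values derived, with combinations analysed isobolographically.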

[3] = Minimal motor impairment (rotarod)

Structure (SMILES): Fc1ccc(N2CCN(Cc3ccn4c(CC5CC5)nnc4c3C(F)(F)F)CC2)c(F)c1 [Co. No. 1]
- # protected/# tested ([1]; 0.5 mg/kg s.c., 0.5 h): 1/8
- # protected/# tested ([1]; 2.5 mg/kg s.c., 0.25 h): 1/8
- # protected/# tested ([1]; 2.5 mg/kg s.c., 0.5 h): 5/8 and 7/16
- # protected/# tested ([1]; 5 mg/kg s.c., 0.25 h): 8/12
- # protected/# tested ([1]; 5 mg/kg s.c., 0.5 h): 8/12
- # protected/# tested ([1]; 10 mg/kg s.c., 0.25 h): 4/4
- # protected/# tested ([1]; 10 mg/kg s.c., 0.5 h): 4/4 and 7/8
- # protected/# tested ([1]; 10 mg/kg s.c., 1 h): 3/4
- # protected/# tested ([1]; 10 mg/kg s.c., 2 h): 0/4
- # protected/# tested ([1]; 10 mg/kg s.c., 4 h): 0/4
- # protected/# tested ([1]; 20 mg/kg s.c., 0.5 h): 8/8
- ED50 ([1]; sc, at TPE): 2.8 mg/kg
- ED50 (95% CI) 32 mA ([1]; s.c., at TPE): ED50 (95% CI): 2.8 mg/kg (1.3 to 4.3)
- responders at 2.5 mg/kg ([2]; Mus musculus, sc, 0.5 h, 2.5 mg/kg s.c., 0.5 h, read-out: # protected/# tested): 0%
- responders at 10 mg/kg ([2]; Mus musculus, sc, 0.5 h, 10 mg/kg s.c., 0.5 h, read-out: # protected/# tested (converted)): 50%
- responders at 15 mg/kg ([2]; Mus musculus, sc, 0.5 h, 15 mg/kg s.c., 0.5 h, read-out: # protected/# tested (converted)): 87.5%
- responders at 20 mg/kg ([2]; Mus musculus, sc, 0.5 h, 20 mg/kg s.c., 0.5 h, read-out: # protected/# tested (converted)): 100%
- ED50 ([2]; Mus musculus, sc, at TPE, compound alone, read-out: ED50 (95% CI) 44 mA): 10.2 mg/kg
- ED50 (95% CI) 44 mA ([2]; s.c., at TPE, compound alone): 10.2 (3.1-12.4) mg/kg
- # rotarod motor impairment/# tested ([3]; 0.5 mg/kg s.c., 0.5 h, 32 mA group): 0/8
- # rotarod motor impairment/# tested ([3]; 2.5 mg/kg s.c., 0.25 h, 32 mA group): 0/0
- # rotarod motor impairment/# tested ([3]; 2.5 mg/kg s.c., 0.5 h, 32 mA group): 0/0 and 0/16
- # rotarod motor impairment/# tested ([3]; 2.5 mg/kg s.c., 0.5 h, 44 mA group): 0/8
- # rotarod motor impairment/# tested ([3]; 5 mg/kg s.c., 0.25 h, 32 mA group): 0/0
- # rotarod motor impairment/# tested ([3]; 5 mg/kg s.c., 0.5 h, 32 mA group): 0/0 and 0/12
- # rotarod motor impairment/# tested ([3]; 10 mg/kg s.c., 0.25 h, 32 mA group): 0/0
- # rotarod motor impairment/# tested ([3]; 10 mg/kg s.c., 0.5 h, 32 mA group): 0/0 and 0/8
- # rotarod motor impairment/# tested ([3]; 10 mg/kg s.c., 0.5 h, 44 mA group): 0/8
- # rotarod motor impairment/# tested ([3]; 10 mg/kg s.c., 1 h, 32 mA group): 0/0
- # rotarod motor impairment/# tested ([3]; 10 mg/kg s.c., 2 h, 32 mA group): 0/0
- # rotarod motor impairment/# tested ([3]; 10 mg/kg s.c., 4 h, 32 mA group): 0/0
- # rotarod motor impairment/# tested ([3]; 15 mg/kg s.c., 0.5 h, 44 mA group): 0/8
- # rotarod motor impairment/# tested ([3]; 20 mg/kg s.c., 0.5 h, 32 mA group): 1/8
- # rotarod motor impairment/# tested ([3]; 20 mg/kg s.c., 0.5 h, 44 mA group): 1/8

Structure (SMILES): C[C@H](Oc1ccc(F)cc1F)c1ccn2c(CC3CC3)nnc2c1C(F)(F)F [Co. No. 6-b, 3-(Cyclopropylmethyl)-7-[(1S)-1-(2,4-difluorophenoxy)ethyl]-8-(trifluoromethyl)[1,2,4]triazolo[4,3-a]pyridine]
- # protected/# tested ([1]; 2.5 mg/kg p.o., 0.5 h): 1/8
- # protected/# tested ([1]; 5 mg/kg p.o., 0.5 h): 2/8
- # protected/# tested ([1]; 10 mg/kg p.o., 0.25 h): 1/4
- # protected/# tested ([1]; 10 mg/kg p.o., 0.5 h): 3/4 and 6/8
- # protected/# tested ([1]; 10 mg/kg p.o., 1 h): 0/4
- # protected/# tested ([1]; 10 mg/kg p.o., 2 h): 1/4
- # protected/# tested ([1]; 10 mg/kg p.o., 4 h): 0/4
- # protected/# tested ([1]; 20 mg/kg p.o., 0.25 h): 4/4
- # protected/# tested ([1]; 20 mg/kg p.o., 0.5 h): 3/4 and 7/8
- # protected/# tested ([1]; 20 mg/kg p.o., 1 h): 4/4
- # protected/# tested ([1]; 20 mg/kg p.o., 2 h): 0/4
- # protected/# tested ([1]; 20 mg/kg p.o., 4 h): 1/4
- ED50 ([1]; po, 0.5 h, p.o., 0.5 h TPE): 7.2 mg/kg
- ED50 (95% CI) 32 mA ([1]; p.o., 0.5 h TPE): ED50 (95% CI): 7.2 mg/kg (4.2 to 11.8)
- activity when administered alone ([2]; 10 mg/kg p.o.): did not protect; also recorded: Co. No. 6-b 10 mg/kg, not active when administered alone
- responders at 10 mg/kg ([2]; Mus musculus, po, 0.5 h, 10 mg/kg p.o., 0.5 h, read-out: # protected/# tested (converted)): 0%
- responders at 15 mg/kg ([2]; Mus musculus, po, 0.5 h, 15 mg/kg p.o., 0.5 h, read-out: # protected/# tested (converted)): 50%
- responders at 20 mg/kg ([2]; Mus musculus, po, 0.5 h, 20 mg/kg p.o., 0.5 h, read-out: # protected/# tested (converted)): 75%
- responders at 40 mg/kg ([2]; Mus musculus, po, 0.5 h, 40 mg/kg p.o., 0.5 h, read-out: # protected/# tested (converted)): 100%
- ED50 ([2]; Mus musculus, po, 0.5 h, p.o., 0.5 h TPE, read-out: ED50 (95% CI) 44 mA): 16.1 mg/kg
- ED50 (95% CI) 44 mA ([2]; p.o., 0.5 h TPE): 16.1 (13.0-20.1) mg/kg
- # rotarod motor impairment/# tested ([3]; 2.5 mg/kg p.o., 0.5 h, 32 mA group): 0/8
- # rotarod motor impairment/# tested ([3]; 5 mg/kg p.o., 0.5 h, 32 mA group): 0/8
- # rotarod motor impairment/# tested ([3]; 10 mg/kg p.o., 0.25 h, 32 mA group): 0/4
- # rotarod motor impairment/# tested ([3]; 10 mg/kg p.o., 0.5 h, 32 mA group): 0/4 and 0/8
- # rotarod motor impairment/# tested ([3]; 10 mg/kg p.o., 0.5 h, 44 mA group): 0/8
- # rotarod motor impairment/# tested ([3]; 10 mg/kg p.o., 1 h, 32 mA group): 0/4
- # rotarod motor impairment/# tested ([3]; 10 mg/kg p.o., 2 h, 32 mA group): 0/4
- # rotarod motor impairment/# tested ([3]; 10 mg/kg p.o., 4 h, 32 mA group): 0/4
- # rotarod motor impairment/# tested ([3]; 15 mg/kg p.o., 0.5 h, 44 mA group): 0/8
- # rotarod motor impairment/# tested ([3]; 20 mg/kg p.o., 0.25 h, 32 mA group): 0/4
- # rotarod motor impairment/# tested ([3]; 20 mg/kg p.o., 0.5 h, 32 mA group): 0/4 and 0/8
- # rotarod motor impairment/# tested ([3]; 20 mg/kg p.o., 0.5 h, 44 mA group): 0/8
- # rotarod motor impairment/# tested ([3]; 20 mg/kg p.o., 1 h, 32 mA group): 0/4
- # rotarod motor impairment/# tested ([3]; 20 mg/kg p.o., 2 h, 32 mA group): 0/4
- # rotarod motor impairment/# tested ([3]; 20 mg/kg p.o., 4 h, 32 mA group): 0/4
- # rotarod motor impairment/# tested ([3]; 40 mg/kg p.o., 0.5 h, 44 mA group): 0/8

Structure (SMILES): CC[C@@H](C(N)=O)N1CCCC1=O [LEV, (S)-2-(2-oxopyrrolidin-1-yl) butanamide, reference compound]
- # protected/# tested ([2]; LEV (low-dose) control group 25 mg/kg): 1/8
- # protected/# tested ([2]; LEV alone 10 mg/kg i.p., 1 h): ⅙
- responders at 200 mg/kg ([2]; Mus musculus, 6 Hz (44 mA), LEV alone 200 mg/kg, read-out: # protected/# tested (converted)): 25%
- responders at 400 mg/kg ([2]; Mus musculus, 6 Hz (44 mA), LEV alone 400 mg/kg, read-out: # protected/# tested (converted)): 44.4%
- responders at 800 mg/kg ([2]; Mus musculus, 6 Hz (44 mA), LEV alone 800 mg/kg, read-out: # protected/# tested (converted)): 83.3%
- ED50 ([2]; Mus musculus, ip, 1 h, 6 Hz (44 mA), LEV alone, i.p., 1 h TPE, read-out: LEV ED50 (95% CI)): 345 mg/kg
- responders at 10 mg/kg ([2]; Mus musculus, ip, 1 h, LEV alone 10 mg/kg i.p., 1 h, read-out: # protected/# tested (converted)): 16.7%
- ED50 ([2]; Mus musculus, ip, 1 h, i.p., 1 h TPE, read-out: ED50 (95% CI) 44 mA, LEV alone): ~345 mg/kg
- responders at 200 mg/kg ([2]; Mus musculus, ip, LEV alone 200 mg/kg i.p., read-out: # protected/# tested (converted)): 25%
- responders at 350 mg/kg ([2]; Mus musculus, ip, LEV alone 350 mg/kg i.p., read-out: # protected/# tested (converted)): 37.5%
- responders at 400 mg/kg ([2]; Mus musculus, ip, LEV alone 400 mg/kg i.p., read-out: # protected/# tested (converted)): 44.4%
- responders at 800 mg/kg ([2]; Mus musculus, ip, LEV alone 800 mg/kg i.p., read-out: # protected/# tested (converted)): 83.3%
- Maximum Effect (% Protection) ([2]; compound alone): 75%
- # motortox/# tested ([3]; LEV alone 10 mg/kg i.p., 1 h, 44 mA group): 0/6 and 0/8
- # rotarod motor impairment/# tested ([3]; LEV alone 200 mg/kg): 0/8
- # rotarod motor impairment/# tested ([3]; LEV alone 200 mg/kg i.p., 44 mA group): 0/8
- # rotarod motor impairment/# tested ([3]; LEV alone 350 mg/kg i.p., 44 mA group): 0/8
- # rotarod motor impairment/# tested ([3]; LEV alone 400 mg/kg): 0/9
- # rotarod motor impairment/# tested ([3]; LEV alone 400 mg/kg i.p., 44 mA group): 0/9
- # rotarod motor impairment/# tested ([3]; LEV alone 800 mg/kg): 0/12
- # rotarod motor impairment/# tested ([3]; LEV alone 800 mg/kg i.p., 44 mA group): 0/12
